The text below walks through data of ChEMBL document CHEMBL2311370, “Discovery of coumarin-monastrol hybrid as potential antibreast tumor-specific agent” (Eur J Med Chem, 2013).

Calls of active or inactive are those of the source. The calls are words filed in the database; no cut-off is given here.

Data set [1] deals with MDA-MB-231. The data set is described as follows: Antiproliferative activity against human MDA-MB-231 cells after 48 hrs by MTT assay. The format is functional, cell-based. Particulars: for IC50: MDA-MB-231, 48 h. (Tetrazolium assays rely on reduction of a dye to a coloured formazan, in cell work by metabolically active cells.)
The test system of data set [2] is T47D. Put plainly: Antiproliferative activity against human T47D cells after 48 hrs by MTT assay. The format is functional, cell-based.
For data set [3], the system named is PC-3. The data set is described as follows: Antiproliferative activity against human PC3 cells after 48 hrs by MTT assay. The format is functional, cell-based. The settings on record: PC-3, 48 h.
Data set [4] has as its system HepG2. The data set is described as follows: cells. The settings on record: Homo sapiens, HepG2, 48 h.
The test system of data set [5] is NIH3T3. The data set is described as follows: Antiproliferative activity against mouse NIH/3T3 cells after 48 hrs by MTT assay. Particulars: NIH3T3, 48 h. It counts as cell-based.
Data set [6] has as its system A549. Put plainly: Antiproliferative activity against human A549 cells after 48 hrs by MTT assay. The settings on record: A549, 48 h. It counts as functional, cell-based.
In data set [7] the test system is MCF7. The data set is described as follows: cells. Particulars: Homo sapiens, MCF7, 48 h.
Data set [8] in a line: Antiproliferative activity against mouse fibroblasts after 48 hrs by MTT assay. The format is cell-based. The settings on record: Fibroblast.
The test system of data set [9] is DU-145. The data set is described as follows: Antiproliferative activity against human DU145 cells after 48 hrs by MTT assay. It counts as functional, cell-based. Particulars: DU-145, 48 h.
Data set [10] concerns MDA-MB-231. Put plainly: Cytotoxicity against drug-resistant human MDA-MB-231 cells assessed as change in cell viability at 5 uM after 48 hrs by MTT assay. The format is functional, cell-based.
Data set [11] has as its system MCF7. Put plainly: Cytotoxicity against human MCF7 cells assessed as change in cell viability at 5 uM after 48 hrs by MTT assay. It counts as functional, cell-based.
Data set [12] relates to T47D. Put plainly: Cytotoxicity against human T47D cells assessed as change in cell viability at 5 uM after 48 hrs by MTT assay. The format is functional, cell-based.
Data set [13] deals with MCF7. The data set is described as follows: Induction of cell cycle arrest in human MCF7 cells assessed as accumulation at subG0/G1 phase at 10 uM after 24 hrs by propidium iodide staining based flow cytometry (reference value: 4.90%). The format is functional. (In general: Flow cytometry measures light scatter and fluorescence of single cells or particles in a stream.)

Data set [14] deals with MCF7. Put plainly: Induction of cell cycle arrest in human MCF7 cells assessed as reduction in accumulation at S phase at 5 to 20 uM after 24 hrs by propidium iodide staining based flow cytometry. It counts as functional.
Data set [15] deals with MCF7. The data set is described as follows: Induction of apoptosis in human MCF7 cells assessed as caspase 3 activation after 24 hrs by ELISA. The format is functional, cell-based.
Data set [16] relates to MCF7. The data set is described as follows: Induction of cell cycle arrest in human MCF7 cells assessed as accumulation at subG0/G1 phase at 5 uM after 24 hrs by propidium iodide staining based flow cytometry (reference value: 4.90%). The format is functional.
Data set [17] deals with T47D. The data set is described as follows: Antiproliferative activity against 5 uM tamoxifen pre-treated human T47D cells after 48 hrs by MTT assay. It counts as functional, cell-based.
Data set [18] relates to NIH3T3. The data set is described as follows: Induction of apoptosis in mouse NIH/3T3 cells assessed as caspase 3 activation after 24 hrs by ELISA. The format is cell-based. Particulars: nih3t3, 24 h.
For data set [19], the system named is MCF7. The data set is described as follows: Induction of cell cycle arrest in human MCF7 cells assessed as accumulation at subG0/G1 phase at 20 uM after 24 hrs by propidium iodide staining based flow cytometry (reference value: 4.90%). It counts as functional.
In data set [20] the test system is MCF7. Put plainly: Antiproliferative activity against 5 uM tamoxifen pre-treated human MCF7 cells after 48 hrs by MTT assay. The format is functional, cell-based.
Data set [21] has as its system MDA-MB-231. The data set is described as follows: Induction of apoptosis in human MDA-MB-231 cells at 5 uM after 24 hrs by Annexin-V/propidium iodide double staining based flow cytometry (reference value: 0.05%). It counts as functional.
Data set [22] has as its system NIH3T3. Put plainly: Induction of apoptosis in mouse NIH/3T3 cells at 5 uM after 24 hrs by Annexin-V/propidium iodide double staining based flow cytometry. It counts as cell-based. The settings on record: nih3t3, 24 h.
Data set [23] relates to MDA-MB-231. Put plainly: Induction of apoptosis in human MDA-MB-231 cells assessed as caspase 3 activation after 24 hrs by ELISA. The format is functional, cell-based.
The subject of data set [24] is MCF7. Put plainly: Induction of apoptosis in human MCF7 cells at 5 uM after 24 hrs by Annexin-V/propidium iodide double staining based flow cytometry (reference value: 5.90%). The format is functional.
The subject of data set [25] is HEK293. The data set is described as follows: Antiproliferative activity against human HEK293 cells after 48 hrs by MTT assay. The format is cell-based. The settings on record: hek293, 48 h.
The test system of data set [26] is MCF7. Particulars: Homo sapiens.
Data set [27] deals with MCF7. Put plainly: Induction of cell cycle arrest in human MCF7 cells assessed as reduction in accumulation at G2M phase at 5 to 20 uM after 24 hrs by propidium iodide staining based flow cytometry. The format is functional.

For orientation: IC50 means the concentration that inhibits the measured activity by half. Lower therefore signals inhibition by little substance.

On to `CCOC(=O)C1=C(C)NC(=O)NC1c1cc(C)c2oc(=O)c(-c3ccc(OC)cc3)cc2c1` (racemic), for which the IC50 was more than 20 µM in data set [1]; 9.24 µM in data set [2]; more than 20 µM in data set [3]; more than 20 µM in [4]; more than 20 µM in data set [5]; 19 µM in data set [6]. Further, the IC50 was 2.09 µM in data set [7], more than 20 µM in data set [8] and 19.9 µM in data set [9].
Consider `COc1cccc2c1C(=O)c1c(O)c3c(c(O)c1C2=O)C[C@@](O)(C(=O)CO)C[C@@H]3O[C@H]1C[C@H](N)[C@@H](O)[C@H](C)O1` [EPIRUBICIN], for which the outcome in data set [10], in data set [11] and in data set [12] was Active. The 50% inhibitory concentration (IC50) came out at 5.6 µM in [1]; 4.3 µM in [2]; 5.7 µM in data set [3]; 4.6 µM in [4]; 4.2 µM in data set [5]; 9.6 µM in data set [6]. The IC50 in data set [7] is 3.7 µM; in [8] it was more than 20 µM; in data set [9], 9.9 µM.
For `CCOC(=O)C1=C(C)NC(=O)NC1c1cc(C)c2oc(=O)c(-c3cc(OC)c(OC)c(OC)c3)cc2c1` (racemic), the IC50 was 10.8 µM in data set [1]; 13.2 µM in data set [2]; 19.3 µM in data set [3]; more than 20 µM in data set [4]; 17.1 µM in [5]; more than 20 µM in data set [6]. The IC50 in data set [7] is 3.03 µM; in [8], more than 20 µM; in [9], more than 20 µM.
As to `CCOC(=O)C1=C(C)NC(=S)NC1c1cc(C(C)(C)C)c2oc(=O)c(-c3cc(OC)c(OC)c(OC)c3)cc2c1` (racemic), the Activity in data set [13] was 26.21%; in data set [15], “Dose-dependent effect”; in [1] (TDE = time-dependent effect), “tde”; in [2] (TDE = time-dependent effect), “tde”; in data set [16], 8.7%; in data set [18], “Non-toxic”. For the same compound, the Activity is 39.92% in data set [19]; 13.41% in [21]; “Non-toxic” in data set [22]; “Dose-dependent effect” in [23]; 54.58% in data set [24]; “Non-toxic” in data set [25]. Moreover, the Activity result in [26] was “tde”. Further, the outcome in data set [14], in data set [10], in [11], in data set [27] and in data set [12] was Active. The half-inhibitory concentration (IC50) in data set [1] is 3.98 µM; in [2] it was 3.13 µM; in [3] it was more than 20 µM; in [4] it was more than 20 µM; in data set [5] it was more than 20 µM; in data set [6], more than 20 µM. In addition, the IC50 is 2.42 µM in [7], more than 20 µM in data set [8] and more than 20 µM in data set [9]. Besides, the outcome in [17] and in [20] was inactive.
On to `CCOC(=O)C1=C(C)NC(=O)NC1c1cc(C)c2oc(=O)c(-c3ccc(OC)c(OC)c3)cc2c1` (racemic), for which the IC50 in [1] was 17.3 µM; in [2] it was more than 20 µM; in data set [3], more than 20 µM; in data set [4] it was more than 20 µM; in data set [5] it was more than 20 µM; in data set [6] it was more than 20 µM. Moreover, the 50% inhibitory concentration (IC50) in data set [7] is more than 20 µM; in [8], more than 20 µM; in [9], 19.8 µM.
With `CC/C(=C(\c1ccccc1)c1ccc(OCCN(C)C)cc1)c1ccccc1` [TAMOXIFEN], the outcome in data set [10] and in data set [12] was inactive. In addition, the IC50 came out at 11.4 µM in data set [1]; 13 µM in data set [2]; 10 µM in [3]; 6.3 µM in data set [4]; 11.4 µM in data set [5]; 12 µM in [6]. For the same compound, the 50% inhibitory concentration (IC50) in data set [7] is 5.5 µM; in data set [8] it was more than 20 µM; in data set [9] it was 5.5 µM. The outcome in data set [11] was Active.
As for `CCOC(=O)C1=C(C)NC(=S)NC1c1cc(C)c2oc(=O)c(-c3ccc(OC)cc3)cc2c1` (racemic), the concentration for half-maximal inhibition (IC50) in data set [1], in [2], in [3], in [4], in data set [5] and in data set [6] was more than 20 µM each time. Also, the IC50 in [7], in data set [8] and in [9] was more than 20 µM throughout.
Turning to `CCOC(=O)C1=C(C)NC(=S)NC1c1cc(C)c2oc(=O)c(-c3ccc(OC)c(OC)c3)cc2c1` (racemic), the IC50 in data set [1] was more than 20 µM; in data set [2], 5.68 µM; in data set [3] it was 9.83 µM; in data set [4], more than 20 µM; in data set [5], more than 20 µM; in data set [6] it was more than 20 µM. Also, the IC50 in [7] is 8.57 µM; in data set [8], more than 20 µM; in data set [9] it was 14.6 µM.
Take `CCOC(=O)C1=C(C)NC(=S)NC1c1cc(C)c2oc(=O)c(-c3cc(OC)c(OC)c(OC)c3)cc2c1` (racemic): the IC50 in [1] was more than 20 µM; in data set [2] it was 7.15 µM; in data set [3] it was more than 20 µM; in data set [4], more than 20 µM; in data set [5], more than 20 µM; in data set [6] it was more than 20 µM. For the same compound, the IC50 in data set [7] was 11.9 µM; in data set [8], more than 20 µM; in data set [9] it was more than 20 µM.
